For 25 molecules, T/C results are on record in PubChem BioAssay AID330 (DTP/NCI, 2004).

This test concerns P388 leukemia ip, CD2F1 mice, survival T/C. The experiment in a line: NCI In Vivo Anticancer Drug Screen. Data for tumor model P388 Leukemia (intraperitoneal) in CD2F1 (CDF1) mice. The settings on record: endpoint: median survival time, higher = longer survival. In outline: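 Mice carrying the transplanted tumor received test compound or vehicle. Survival was recorded in each group, and the value is the treated-group measurement divided by that of the vehicle-treated control group.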

Where [1] appears, read: dose: 100.0 mg/kg/injection, schedule: Q04DX003 (ip), vehicle: saline.
[2] abbreviates: dose: 200.0 mg/kg/injection, schedule: Q04DX003 (ip), vehicle: saline.
[3] abbreviates: dose: 400.0 mg/kg/injection, schedule: Q04DX003 (ip), vehicle: saline.
The mark [4] stands for this setting: dose: 50.0 mg/kg/injection, schedule: Q01DX009 (ip), vehicle: saline with Tween-80.
Where [5] appears, read: dose: 200.0 mg/kg/injection, schedule: Q01DX009 (ip), vehicle: saline with Tween-80.
Setting [6] is: dose: 60.0 mg/kg/injection, schedule: Q01DX005 (ip), vehicle: saline with Tween-80.
[7] abbreviates: dose: 120.0 mg/kg/injection, schedule: Q01DX005 (ip), vehicle: saline with Tween-80.
Where [8] appears, read: dose: 240.0 mg/kg/injection, schedule: Q01DX005 (ip), vehicle: saline with Tween-80.
The mark [9] stands for this setting: dose: 50.0 mg/kg/injection, schedule: Q01DX005 (ip), vehicle: Klucel (hydroxypropylcellulose) (HPC).
The mark [10] stands for this setting: dose: 100.0 mg/kg/injection, schedule: Q01DX005 (ip), vehicle: Klucel (hydroxypropylcellulose) (HPC).
The mark [11] stands for this setting: dose: 200.0 mg/kg/injection, schedule: Q01DX005 (ip), vehicle: Klucel (hydroxypropylcellulose) (HPC).
Setting [12] is: dose: 50.0 mg/kg/injection, schedule: Q01DX005 (ip), vehicle: saline with Tween-80.
[13] abbreviates: dose: 100.0 mg/kg/injection, schedule: Q01DX005 (ip), vehicle: saline with Tween-80.
The mark [14] stands for this setting: dose: 50.0 mg/kg/injection, schedule: Q01DX009 (ip), vehicle: saline.
Where [15] appears, read: dose: 100.0 mg/kg/injection, schedule: Q01DX009 (ip), vehicle: saline.
Where [16] appears, read: dose: 100.0 mg/kg/injection, schedule: Q04DX003 (ip), vehicle: Klucel (hydroxypropylcellulose) (HPC).

Several values for one entry are separate records, joined by “and”; a condition that tells them apart may be missing. Equal values may be shown once. Toxic doses and inconclusive results are not listed.

`C=C(C)C(=NC(C)C)Nc1ccccc1`: the T/C was 103 % of control and 104 % of control (dose: 6.25 mg/kg/injection, schedule: Q01DX005 (ip), vehicle: Klucel (hydroxypropylcellulose) (HPC)); 107 % of control and 123 % of control and 96 % of control (dose: 12.5 mg/kg/injection, schedule: Q01DX005 (ip), vehicle: Klucel (hydroxypropylcellulose) (HPC)); 99 % of control and 104 % of control and 106 % of control (dose: 25.0 mg/kg/injection, schedule: Q01DX005 (ip), vehicle: Klucel (hydroxypropylcellulose) (HPC)).

Regarding `Cc1nc(C)n2ncnc2c1C`, the T/C was 93 % of control under setting [1], 102 % of control under setting [2] and 95 % of control under setting [3].

`O=[N+]([O-])CC(OCCCCO)C(Cl)(Cl)Cl` (centres undefined): the T/C by setting is: under setting [4], 101 % of control; (dose: 100.0 mg/kg/injection, schedule: Q01DX009 (ip), vehicle: saline with Tween-80) 96 % of control; under setting [5], 87 % of control.

In the case of `Cc1ncc(C(O)c2ccc(N(C)C)cc2)n1Cc1ccccc1` (centres undefined), the T/C runs as follows: under setting [6], 98 % of control; under setting [7], 95 % of control; under setting [8], 95 % of control.

As to `CCOC(=O)c1ccc(NC(=O)Oc2ccc3c(C)cc(=O)oc3c2)cc1`, the T/C was 98 % of control under setting [6], 98 % of control under setting [7] and 103 % of control under setting [8].

On to `O=S(=O)(C(c1ccc(Cl)cc1)c1ccc(Cl)cc1)C(Cl)(Cl)Cl`, for which the T/C reads like this: (dose: 25.0 mg/kg/injection, schedule: Q01DX001 (ip), vehicle: Klucel (hydroxypropylcellulose) (HPC)) 108 % of control; (dose: 50.0 mg/kg/injection, schedule: Q01DX001 (ip), vehicle: Klucel (hydroxypropylcellulose) (HPC)) 102 % of control; (dose: 100.0 mg/kg/injection, schedule: Q01DX001 (ip), vehicle: Klucel (hydroxypropylcellulose) (HPC)) 102 % of control.

For the molecule `CC1CCC(C(C)C)C(OC(=O)c2cccc[n+]2C)C1` (centres undefined), the T/C was 107 % of control (dose: 3.75 mg/kg/injection, schedule: Q01DX005 (ip), vehicle: saline); 103 % of control (dose: 7.5 mg/kg/injection, schedule: Q01DX005 (ip), vehicle: saline); 110 % of control (dose: 15.0 mg/kg/injection, schedule: Q01DX005 (ip), vehicle: saline); 104 % of control and 119 % of control (dose: 30.0 mg/kg/injection, schedule: Q01DX005 (ip), vehicle: saline).

`O=NNc1nccs1`: the T/C is, setting by setting: (dose: 1.56 mg/kg/injection, schedule: Q01DX009 (ip), vehicle: water) 96 % of control; (dose: 3.12 mg/kg/injection, schedule: Q01DX009 (ip), vehicle: water) 100 % of control; (dose: 6.25 mg/kg/injection, schedule: Q01DX009 (ip), vehicle: water) 99 % of control; (dose: 12.5 mg/kg/injection, schedule: Q01DX009 (ip), vehicle: water) 97 % of control.

Consider `O=C1/C(=C/c2ccccc2)CNC/C1=C\c1ccccc1`, for which the T/C was 102 % of control (dose: 60.0 mg/kg/injection, schedule: Q01DX005 (ip), vehicle: Klucel (hydroxypropylcellulose) (HPC)); 111 % of control (dose: 120.0 mg/kg/injection, schedule: Q01DX005 (ip), vehicle: Klucel (hydroxypropylcellulose) (HPC)); 116 % of control (dose: 240.0 mg/kg/injection, schedule: Q01DX005 (ip), vehicle: Klucel (hydroxypropylcellulose) (HPC)).

Turning to `CCCCCCCCCCC(O)C1CCC(C2CCC(C(O)C(=O)CCCCCCCCCCCC3CC(C)OC3=O)O2)O1` (centres undefined), the T/C (dose: 0.35 mg/kg/injection, schedule: Q01DX005 (ip), vehicle: Klucel (hydroxypropylcellulose) (HPC)) is 107 % of control and 115 % of control; the T/C (dose: 0.7 mg/kg/injection, schedule: Q01DX005 (ip), vehicle: Klucel (hydroxypropylcellulose) (HPC)) is 112 % of control and 119 % of control; the T/C (dose: 1.4 mg/kg/injection, schedule: Q01DX005 (ip), vehicle: Klucel (hydroxypropylcellulose) (HPC)) was 120 % of control.

`O=c1[nH]c(=O)n(C(c2ccccc2)(c2ccccc2)c2ccccc2)cc1N(CCO)CCO`: the T/C is, setting by setting: under setting [9], 100 % of control; under setting [10], 97 % of control; under setting [11], 98 % of control.

In the case of `Cc1cc(OP2(=O)Nc3cccc4cccc(c34)N2)ccc1Cl`, the T/C reads like this: under setting [12], 89 % of control; under setting [13], 89 % of control.

As for `CCCC1CN2CCc3cc(OC)c(OC)cc3C2CC1=O` (centres undefined), the T/C by setting is: under setting [14], 100 % of control and 104 % of control; under setting [15], 112 % of control and 115 % of control; (dose: 200.0 mg/kg/injection, schedule: Q01DX009 (ip), vehicle: saline) 120 % of control.

As to `[Cl][Sn]([Cl])([c]1ccccc1)[c]1ccccc1.c1ccc2nc(-c3ccc4ccccc4n3)ccc2c1`, the T/C (dose: 7.5 mg/kg/injection, schedule: Q01DX005 (ip), vehicle: Klucel (hydroxypropylcellulose) (HPC)) was 100 % of control and 106 % of control; the T/C (dose: 15.0 mg/kg/injection, schedule: Q01DX005 (ip), vehicle: Klucel (hydroxypropylcellulose) (HPC)) is 100 % of control and 113 % of control; the T/C (dose: 30.0 mg/kg/injection, schedule: Q01DX005 (ip), vehicle: Klucel (hydroxypropylcellulose) (HPC)) is 104 % of control and 117 % of control.

Take `COc1ccc(OC)c(/C=C/C2=C(C)C(=O)CC(c3cc(OC)ccc3OC)C2C)c1` (centres undefined): the T/C is 90 % of control under setting [16] and 88 % of control (dose: 200.0 mg/kg/injection, schedule: Q04DX003 (ip), vehicle: Klucel (hydroxypropylcellulose) (HPC)).

For the molecule `COC(=O)/C(C#N)=C(C)/C=C/c1ccc(OC)cc1`, the T/C is 97 % of control under setting [1], 92 % of control under setting [2] and 98 % of control under setting [3].

With `Cc1cc2nc3ccc(N)cc3oc-2cc1=[N+](C)C`, the T/C was 108 % of control (dose: 6.25 mg/kg/injection, schedule: Q01DX009 (ip), vehicle: saline) and 100 % of control under setting [14].

For the molecule `CN(C)CCCN1c2ccccc2Cc2ccccc21`, the T/C (dose: 12.5 mg/kg/injection, schedule: Q01DX005 (ip), vehicle: saline with Tween-80) is 111 % of control; the T/C (dose: 25.0 mg/kg/injection, schedule: Q01DX005 (ip), vehicle: saline with Tween-80) was 108 % of control; the T/C under setting [12] is 100 % of control and 111 % of control; the T/C under setting [13] is 114 % of control.

Regarding `NC(=S)N/N=C/c1cn(-c2ccc(N)cc2)cn1`, the T/C was 100 % of control (dose: 25.0 mg/kg/injection, schedule: Q04DX003 (ip), vehicle: Klucel (hydroxypropylcellulose) (HPC)); 91 % of control (dose: 50.0 mg/kg/injection, schedule: Q04DX003 (ip), vehicle: Klucel (hydroxypropylcellulose) (HPC)); 100 % of control under setting [16].

For `CCOc1ccc(Nc2cc([N+](=O)[O-])ccc2C(=O)O)cc1`, the T/C under setting [4] is 91 % of control and the T/C under setting [5] is 108 % of control.

With `COC(=O)c1c(C(N)=O)c(C)n(NC(=O)c2ccccc2)c1C`, the T/C reads like this: under setting [6], 95 % of control; under setting [7], 93 % of control; under setting [8], 94 % of control.

Turning to `C/C(=N\Nc1cc(C)nc2ccc(C)cc12)c1cn(C)n(-c2ccccc2)c1=O`, the T/C was 97 % of control (dose: 50.0 mg/kg/injection, schedule: Q01DX009 (ip), vehicle: Klucel (hydroxypropylcellulose) (HPC)) and 86 % of control (dose: 100.0 mg/kg/injection, schedule: Q01DX009 (ip), vehicle: Klucel (hydroxypropylcellulose) (HPC)).

Consider `Oc1c(CNCCCN2CCCC2)cc(Cl)c2cccnc12`, for which the T/C runs as follows: (dose: 12.5 mg/kg/injection, schedule: Q01DX009 (ip), vehicle: saline) 102 % of control and 107 % of control; (dose: 25.0 mg/kg/injection, schedule: Q01DX009 (ip), vehicle: saline) 91 % of control and 96 % of control; under setting [14], 88 % of control and 95 % of control; under setting [15], 110 % of control and 112 % of control.

Turning to `C/C(N=NC(=S)N1CCN(c2ccccc2)CC1)=C1\C=CC=CN1O`, the T/C runs as follows: under setting [12], 103 % of control; under setting [13], 101 % of control; (dose: 200.0 mg/kg/injection, schedule: Q01DX005 (ip), vehicle: saline with Tween-80) 103 % of control.

For the molecule `Cc1ccc2c(c1)C1(C)OC(C=CC1S(=O)c1ccccc1)O2` (centres undefined), the T/C by setting is: under setting [9], 102 % of control; under setting [10], 101 % of control; under setting [11], 113 % of control.
